According to US9512161B2, “Hydroxyl, keto, and glucuronide derivatives of 3-(4-(7H-pyrrolo[2,3-D]pyrimidin-4-yl)-1H-pyrazol-1-yl)-3-cyclopentylpropanenitrile” (Incyte Corporation, priority 2009, dated 2016):

assay: Metabolite profiling of plasma and urine from human subjects after administration of Compound I (HPLC-MS); format: in vivo; conditions: human subjects dosed with Compound I; LC-MS detection
Protocol: Metabolites 1-39 were isolated from human, rat or dog urine, plasma, or feces after administration of Compound I in connection with pharmacokinetic and toxicokinetic studies. The identity of the metabolites were determined after isolation of the metabolite using HPLC methods. Tandem MS/MS analysis and higher order MS^n experiments were conducted as required to elucidate structural information.
Plasma samples from all subjects were pooled by subject and/or by time point. The pooled plasma samples were prepared for HPLC-Radiometric analysis as follows: Aliquots of the pooled plasma samples were initially extracted with approximately two equivalent (W/V) volumes of 1% formic acid in HPLC-grade acetonitrile, followed by vigorous vortexing, and centrifugation to remove denatured plasma proteins. The supernatant was reserved and passed through a pre-conditioned Waters C-18 Solid phase extraction cartridge, and the filtrate retained. The SPE cartridge was retained. The remaining plasma pellet was then extracted three times with 1% formic acid in HPLC-grade acetonitrile/water (90/10), with centrifugation after each extraction. All supernatants were reserved. Each formic acid/acetonitrile/water extraction supernatant was used to elute the SPE cartridge. The SPE cartridge was then rinsed with 1% formic acid in methanol. All eluants were retained, combined, and evaporated under a stream of nitrogen at 30° C. The remainder of this extraction was reconstituted in approximately 0.6 ml of 0.1% formic acid in water, vortexed and centrifuged to remove particulate matter. The supernatant was then analyzed by HPLC-Flow Radiometry and HPLC-MS.
Aliquots of approximately equal amounts of urine from each of the subjects were pooled to represent appropriate time intervals post-dose. Prior to HPLC-Radiometric analysis, each pooled urine sample was centrifuged at 4,000 rpm for 10 min to remove particulate matter, then analyzed directly.
All samples were analyzed by either HPLC-Flow radiometry or HPLC-MS using analytical systems that were as identical as practicable. The HPLC-Flow Radiometry system consisted of an Agilent HP 1100 series Quaternary pump, Autosampler, and UV detector interfaced with a Raytest Ramona-90 flow scintillation detector with a 500 μL liquid scintillation cell. […] Mobile phase “A” consisted of 0.1% formic acid in HPLC-grade water, with mobile phase “B” consisting of HPLC-grade methanol/acetonitrile (1:1). Elution of analytes was achieved through use of a linear increasing gradient of mobile phase “B”. Two different gradient elution methods were employed at various times as needed. Chromatographic conditions for these two methods are outlined below in Tables 3 and 4. […]

Row | Structure (SMILES) | Matrix in which the metabolite was observed/found
1 | N#CCC(C1CCCC1)n1cc(-c2nc(O)nc3c2C(=O)CN3)cn1 (stereo not shown) [Compound 32, 3-cyclopentyl-3-(4-(2-hydroxy-5-oxo-6,7-dihydro-5H-pyrrolo[2,3-d]pyrimidin-4-yl)-1H-pyrazol-1-yl)propanenitrile] | plasma and urine
2 | N#CCC(C1CCCC1)n1cc(-c2ncnc3c2ccn3C2OC(C(=O)O)C(O)C(O)C2O)cn1 (stereo not shown) [Compound 41, 6-(4-(1-(2-cyano-1-cyclopentylethyl)-1H-pyrazol-4-yl)-7H-pyrrolo[2,3-d]pyrimidin-7-yl)-3,4,5-trihydroxytetrahydro-2H-pyran-2-carboxylic acid] | urine
3 | N#CCC(C1CCCC1)n1cc(-c2ncnc3c2C(O)C(O)N3)cn1 (stereo not shown) [Compound 40, 3-cyclopentyl-3-(4-(5,6-dihydroxy-6,7-dihydro-5H-pyrrolo[2,3-d]pyrimidin-4-yl)-1H-pyrazol-1-yl)propanenitrile] | plasma and urine
4 | N#CCC(C1CCCC1)n1cc(-c2[nH]c(=O)nc3c2CC(=O)N3)cn1 (stereo not shown) [Compound 31, 3-cyclopentyl-3-(4-(2,6-dioxo-3,5,6,7-tetrahydro-2H-pyrrolo[2,3-d]pyrimidin-4-yl)-1H-pyrazol-1-yl)propanenitrile] | urine
